What was measured:
[1] = system: recombinant TEAD1 protein (194-411, Uniprot ID: P28347); assay: Thermal shift assay (protein melting point curve), TEAD1; assay type: binding; set-up: key to the marks not given beside the values; conditions: 10 μM TEAD protein, 50 μM test compound
[2] = target: recombinant TEAD2 protein (218-447, Uniprot ID: Q15562) (Homo sapiens (Human), UniProt Q15562); assay: Thermal shift assay (protein melting point curve), TEAD2; assay type: binding; conditions: 10 μM TEAD protein, 50 μM test compound
Sequence of recombinant TEAD2 protein (218-447, Uniprot ID: Q15562) (Q15562 218-447): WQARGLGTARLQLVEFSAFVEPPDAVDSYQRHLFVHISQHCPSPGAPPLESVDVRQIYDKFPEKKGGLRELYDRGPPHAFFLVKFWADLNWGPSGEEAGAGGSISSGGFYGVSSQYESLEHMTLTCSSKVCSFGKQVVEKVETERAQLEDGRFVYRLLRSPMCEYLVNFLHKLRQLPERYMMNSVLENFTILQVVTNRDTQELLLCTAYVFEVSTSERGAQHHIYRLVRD

[3] = target: recombinant TEAD3 protein (218-435, Uniprot ID: Q99594) (Homo sapiens (Human), UniProt Q99594); assay: Thermal shift assay (protein melting point curve), TEAD3; assay type: binding; conditions: 10 μM TEAD protein, 50 μM test compound
Sequence of recombinant TEAD3 protein (218-435, Uniprot ID: Q99594) (Q99594 218-435): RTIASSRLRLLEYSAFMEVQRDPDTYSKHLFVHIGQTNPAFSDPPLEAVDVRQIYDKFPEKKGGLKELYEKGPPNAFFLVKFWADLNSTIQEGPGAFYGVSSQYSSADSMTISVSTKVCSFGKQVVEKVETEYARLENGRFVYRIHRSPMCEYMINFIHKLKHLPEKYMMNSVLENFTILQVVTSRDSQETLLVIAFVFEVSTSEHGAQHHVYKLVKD

[4] = In vitro liver microsome stability, mouse; assay type: in vitro ADME; conditions: mouse liver microsomes
Method: Testosterone is selected as the positive reference compound. The specific method is as follows:
Preparing 0.1MK3 PO4 (pH 7.4) buffer and 3×NADPH stock solution (6 mM, 5 mg/mL), and preheating in a 37° C. water bath; preparing spiking solution of tested compound and control compound: adding 5 μL compound stock solution (10 mM) to 95 μL acetonitrile; preparing 1.5 μM spiking solution in microsomes (0.75 mg/mL): add 1.5 μL spiking solution and 18.75 μL liver microsome solution (20 mg/mL) to 479.75 μL K3PO4 buffer; taking 30 μL spiking solution in microsomes and adding it to the multiwell plate, and incubating at 37° C. for 5 min; adding 15 μL of NADPH stock solution to each well, starting to react, and timing; adding 150 μL of acetonitrile solution containing IS at 0 min, 5 min, 15 min, 30 min, 45 min and 60 min respectively to terminate the reaction; after 10 min of oscillation, centrifuging the reaction at 6000 rpm for 15 min; taking 80 μL of supernatant from each well for LC/MS detection and calculating Ti/2.
Liver microsomes of mice, rats, dogs, and human used in the experiment are purchased from Xenotech.

[5] = Mouse plasma pharmacokinetic test; assay type: in vivo, CD-1 mice
Text: In this example, different compounds are used to perform a mouse pharmacokinetic experiment, and the specific steps are as follows: Animal information: CD-1 mice, male, about 20 g, purchase from Beijing Weitonglihua Experimental Animal Technology Co., Ltd.
Animal dietary status: Animals are not fasted before administration and allowed to drink water freely.
Compound preparation method: for intragastric administration (IG)(G1 group), preparing with 0.5% CMC-Na, and for intravenous injection(IV) (G2 group), preparing 5% DMSO+30% PEG400+65% water. […]
Sampling time points of G1 group: 8 points in total, namely 10 min, 30 min, 1 h, 2 h, 4 h, 6 h, 8 h and 24 h after administration, among them, animals G1M01-G1M03 are sampled at 3 time points, namely 10 min, 1 h and 6 h; animals G1M04-G1M06 are sampled at 3 time points, namely 30 min, 2 h and 8 h; animals G1M07-G1M09 are sampled at 2 time points, namely 4 h and 24 h.
Sampling time points of G2 group: 9 points in total, namely 5 min, 10 min, 30 min, 1 h, 2 h, 4 h, 6 h, 8 h, 24 h after administration. It is recommended that animals G2M01-G2M03 are sampled at 3 time points, namely 5 min, 1 h, and 6 h; animals G2M04-G2M06 are sampled at 3 time points, namely 10 min, 2 h, and 8 h; animals G2M07-G2M09 are sampled at 3 time points, namely 30 min, 4 h, and 24 h.
Sample collection: On the day of the experiment, collecting approximately 0.1 mL of whole blood samples at each preset time point and placing in EDTA-K2 anticoagulant tubes.
Sample processing: Within 30 minutes after whole blood sample collection, centrifuging at 4° C., 12,000 rpm for 5 minutes to separate plasma, collecting the upper plasma sample into a sample tube, and freezing the plasma sample in a −10˜−30° C. refrigerator within 30 minutes and transferring to a −60˜−90° C. refrigerator within 24 hours.
Sample testing and data processing: LC/MS/MS testing, WinNonlin for fitting and pharmacokinetic parameter calculation.

- Δ T m (TEAD2) [2]: ++
- Δ T m (TEAD3) [3]: +
- mouse half-life [4]: 0.565 h
- F % ([5]; CD-1 mice, IG 10 mg/kg vs IV 1 mg/kg): 51.9%
- AUC0-t ([5]; CD-1 mice, single IG 10 mg/kg): 4662 ng·h/mL
- AUC0-∞ ([5]; CD-1 mice, single IG 10 mg/kg): 5688 ng·h/mL
- Cmax ([5]; CD-1 mice, single IG 10 mg/kg): 1477 ng/mL
- MRT0-t ([5]; CD-1 mice, single IG 10 mg/kg): 2.84 h
- MRT0-∞ ([5]; CD-1 mice, single IG 10 mg/kg): 4.66 h
- Tmax ([5]; CD-1 mice, single IG 10 mg/kg): 0.5 h
- t1/2 ([5]; CD-1 mice, single IG 10 mg/kg): 3.46 h
- AUC0-t ([5]; CD-1 mice, single IV 1 mg/kg): 899 ng·h/mL
- AUC0-∞ ([5]; CD-1 mice, single IV 1 mg/kg): 924 ng·h/mL
- CL ([5]; CD-1 mice, single IV 1 mg/kg): 18.03 mL/min/kg
- Cmax ([5]; CD-1 mice, single IV 1 mg/kg): 598 ng/mL
- MRT0-t ([5]; CD-1 mice, single IV 1 mg/kg): 1.55 h
- MRT0-∞ ([5]; CD-1 mice, single IV 1 mg/kg): 1.80 h
- Vss ([5]; CD-1 mice, single IV 1 mg/kg): 1.947 L/kg
- t1/2 ([5]; CD-1 mice, single IV 1 mg/kg): 1.94 h
- pharmacokinetic properties in mice ([5]; mice): good pharmacokinetic properties
SMILES: CP(C)(=O)c1ccc(NCc2ccc(C(F)(F)F)cc2)c(-c2nccc(OC3COC3)n2)c1 [Compound 17]
- Δ T m (TEAD1) [1]: ++++

Source: patent US20260055126A1, “SMALL MOLECULE COMPOUNDS WITH PHOSPHORYLATED ARYL STRUCTURES AND USE THEREOF” (HANGZHOU PHECDAMED CO., LTD., priority 2022, published 2026)
